In PMC9221371, “Flavonoid Derivatives as Potential Cholinesterase Inhibitors in Scopolamine-Induced Amnesic Mice: An In Vitro, In Vivo and Integrated Computational Approach” (Brain Sciences, 2022):

How the values were obtained:
[1] = target: T1, BuChE (equine serum lyophilized) (Equus caballus, UniProt P81908); test: biochemical; settings: triplicate; read-out: BChE IC50 (converted)
T1 construct: purchased Sigma-Aldrich (Taufkirchen, Germany); host or cells: equine serum
Experimental: (§1) Synthetic flavonoids F1–F5 previously synthesized by our group were used in the study.
(§2) For the determination of acetylcholinesterase inhibitory potentials, AChE and BuChE were used. […] To the tube were added DTNB (100 µL) and buffer (2.4 mL). The tube was incubated at 25 °C for 5 min as pre-incubation. The reaction was started by adding ATChI (40 µL), and the mixture was incubated at 25 °C for 20 min. The absorbance at 412 nm was measured spectrophotometrically in triplicate. […] The data were recorded in triplicate, and IC50 was calculated.

[2] = target: T2, AChE (electric eel type-VI-S) (Electrophorus electricus, UniProt O42275); test: biochemical; settings: 25 °C, triplicate
T2 construct: purchased Sigma-Aldrich (Taufkirchen, Germany)
T2 sequence (O42275 24-633): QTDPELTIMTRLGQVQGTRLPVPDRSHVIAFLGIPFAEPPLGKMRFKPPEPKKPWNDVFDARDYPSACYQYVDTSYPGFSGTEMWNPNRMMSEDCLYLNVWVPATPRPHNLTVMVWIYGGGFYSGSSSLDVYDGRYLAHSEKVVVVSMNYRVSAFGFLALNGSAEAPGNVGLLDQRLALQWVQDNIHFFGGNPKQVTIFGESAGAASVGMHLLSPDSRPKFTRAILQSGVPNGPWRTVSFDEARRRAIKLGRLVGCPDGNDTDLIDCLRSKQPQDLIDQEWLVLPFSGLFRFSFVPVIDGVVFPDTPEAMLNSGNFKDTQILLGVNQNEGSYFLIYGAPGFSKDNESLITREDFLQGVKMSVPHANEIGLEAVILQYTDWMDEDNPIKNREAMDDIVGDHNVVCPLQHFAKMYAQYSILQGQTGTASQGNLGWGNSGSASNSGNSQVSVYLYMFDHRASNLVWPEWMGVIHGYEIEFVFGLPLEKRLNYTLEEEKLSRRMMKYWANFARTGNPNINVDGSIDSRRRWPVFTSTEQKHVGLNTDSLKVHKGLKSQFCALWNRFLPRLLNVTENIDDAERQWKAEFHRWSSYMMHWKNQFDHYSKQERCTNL
Experimental: as §1, §2

[3] = system: brains of scopolamine-induced amnesic mice; test: Antioxidant enzyme activities and oxidative stress markers in brain homogenate; assay type: in vivo, Balb/C mice; settings: n = 8
Experimental: (§3) The animals in the control (normal) and scopolamine amnesic groups were administered vehicle (Tween-80, 2%) only. Treated animals received F1–F5 suspended in Tween-80 (2%) p.o. at their respective doses for a period of 4 weeks. […] For assessing behavioral effects using the Y-Maze Paradigm and novel object discrimination (NOD) task, scopolamine (1 mg/kg, i.p.) was given to the different groups, 30 min after the respective treatments, to induce memory impairment (amnesia) in mice. All of the tests were performed between 8:00 a.m. and 6:00 p.m. to avoid sham results in the performance of the animals.
The brain was extracted, and a homogenate (10% w/v) in 0.1 M of phosphate buffer (pH 7.4) was prepared by centrifugation for the assessment of brain oxidative status and estimating brain acetylcholinesterase activity. Catalase (CAT), superoxide dismutase (SOD), glutathione (GSH) and level of lipid peroxidation (malondialdehyde, MDA) were quantified as oxidative stress markers.

[4] = system: scopolamine-induced amnesic mice; test: Y-Maze Paradigm, spontaneous alternation in scopolamine-induced amnesic model; assay type: in vivo, Balb/C mice; settings: scopolamine 1 mg/kg i.p., n = 8
Text: For assessment of acute toxicity of the flavones (F1–F5), animals (21 in number) were divided into groups of 3 animals each. The reported protocols by Lorke were followed with slight modification to perform tests in two phases. In the first phase, one (control) group of animals were given Tween-80 (2%), and oral doses of F1–F5 were given to the remaining groups, respectively, at various doses (mg/kg body weight). […] The animals were housed in plastic cages. After two weeks, the animals were sacrificed by euthanasia with isoflurane in a humane manner for assessment of the effects on total weight and weight of the vital organs. The biochemical parameters of blood and histological studies of vital organs (kidney and liver tissue) were also assessed. […] The preliminary pharmacological activity was assessed at various dose concentrations of F1–F5 (2.5–20 mg/kg b.w.) to determine the effective dose for assessment of cognitive function using animal models.
as §3
Behavioral tasks on the Y-Maze Paradigm and “NOD” tasks were conducted in the 5th week of study to determine learning and memory functions. The apparatus arena was cleaned with 70% ethanol during the inter-trial interval to prevent a confounding error due to the influence of odor [20, 21].
The Y-Maze task is a non-invasive and reliable behavioral test that was used for memory assessment of spontaneous alternation for F1–F5 based on previously reported protocols. A single session of Y-Maze was used to record the spontaneous alternation behavior of the animals to determine exploratory behavior and instant memory functioning. The apparatus was made of three arms in a “Y” shape (35 cm × 8 cm × 15 cm) with an equilateral triangular central area. In brief, each of the mice, previously naive to the maze, was placed at the terminal end of one arm. The animals were allowed to move and explore freely for 8 min through the maze. The number of arm entries was noted. One arm entry was considered when the hind paws of the animal were completely placed inside the arm, and the series of arm entries were documented. The spontaneous alternation in percent was calculated.

T1 sequence (P81908 whole entry): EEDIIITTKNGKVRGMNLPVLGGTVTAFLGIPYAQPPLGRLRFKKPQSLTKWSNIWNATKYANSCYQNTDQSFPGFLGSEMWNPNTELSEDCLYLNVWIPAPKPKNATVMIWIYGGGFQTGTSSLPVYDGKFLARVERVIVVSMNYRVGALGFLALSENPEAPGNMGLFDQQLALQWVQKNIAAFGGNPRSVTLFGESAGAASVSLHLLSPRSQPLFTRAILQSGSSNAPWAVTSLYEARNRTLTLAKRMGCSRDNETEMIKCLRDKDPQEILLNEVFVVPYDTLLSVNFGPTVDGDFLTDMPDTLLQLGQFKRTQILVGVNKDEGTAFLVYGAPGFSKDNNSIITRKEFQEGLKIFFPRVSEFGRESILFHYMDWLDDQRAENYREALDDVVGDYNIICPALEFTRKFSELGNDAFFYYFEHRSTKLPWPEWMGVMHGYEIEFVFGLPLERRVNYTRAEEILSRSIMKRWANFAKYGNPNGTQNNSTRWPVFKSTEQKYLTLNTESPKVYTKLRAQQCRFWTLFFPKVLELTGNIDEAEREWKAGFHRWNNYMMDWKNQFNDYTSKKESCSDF

Row | SMILES | IC50 [1] | IC50 [2] | CAT ([3]; 7.5 mg/kg b.w.) | GSH ([3]; 7.5 mg/kg b.w.) | MDA ([3]; 7.5 mg/kg b.w.) | SOD ([3]; 7.5 mg/kg b.w.) | CAT ([3]; 15 mg/kg b.w.) | GSH ([3]; 15 mg/kg b.w.) | MDA ([3]; 15 mg/kg b.w.) | SOD ([3]; 15 mg/kg b.w.) | Spontaneous Alternation Performance ([4]; 7.5 mg/kg b.w. p.o. 4 weeks) | Spontaneous Alternation Performance ([4]; 15 mg/kg b.w. p.o. 4 weeks)
1 | O=c1cc(-c2ccc(Cl)c(Cl)c2)oc2ccccc12 [Compound F4] | 418 µM | 386 µM | 22.21 ± 1.40 U/mg of Protein | 36.21 ± 1.35 μg/mg of Protein | 15.74 ± 1.21 nmol/mg Protein | 9.30 ± 1.41 U/mg of Protein | 23.39 ± 1.32 U/mg of Protein | 38.30 ± 1.40 μg/mg of Protein | 15.01 ± 1.37 nmol/mg Protein | 9.71 ± 1.56 U/mg of Protein | 57.92 ± 1.41 % | 66.70 ± 1.63 %
2 | O=c1cc(-c2ccc(Cl)cc2Cl)oc2ccccc12 [Compound F2] | 361 µM | 451 µM | 22.83 ± 1.19 U/mg of Protein | 34.93 ± 1.22 μg/mg of Protein | 15.16 ± 1.21 nmol/mg Protein | 9.25 ± 1.36 U/mg of Protein | 23.71 ± 1.45 U/mg of Protein | 35.91 ± 1.39 μg/mg of Protein | 14.90 ± 1.33 nmol/mg Protein | 9.33 ± 1.45 U/mg of Protein | 47.13 ± 1.65% | 49.88 ± 1.28%
